Test results published in ChEMBL document CHEMBL3991601, “The target landscape of clinical kinase drugs” (Science, 2017).
Calls of active or inactive are those of the source.

Legend:
[1] = molecular target: Mitogen-activated protein kinase 8 (Homo sapiens, UniProt P45983)
[2] = molecular target: T1, Serine/threonine-protein kinase ULK3 (Homo sapiens, UniProt Q6PHR2)
T1 sequence (Q6PHR2 whole entry): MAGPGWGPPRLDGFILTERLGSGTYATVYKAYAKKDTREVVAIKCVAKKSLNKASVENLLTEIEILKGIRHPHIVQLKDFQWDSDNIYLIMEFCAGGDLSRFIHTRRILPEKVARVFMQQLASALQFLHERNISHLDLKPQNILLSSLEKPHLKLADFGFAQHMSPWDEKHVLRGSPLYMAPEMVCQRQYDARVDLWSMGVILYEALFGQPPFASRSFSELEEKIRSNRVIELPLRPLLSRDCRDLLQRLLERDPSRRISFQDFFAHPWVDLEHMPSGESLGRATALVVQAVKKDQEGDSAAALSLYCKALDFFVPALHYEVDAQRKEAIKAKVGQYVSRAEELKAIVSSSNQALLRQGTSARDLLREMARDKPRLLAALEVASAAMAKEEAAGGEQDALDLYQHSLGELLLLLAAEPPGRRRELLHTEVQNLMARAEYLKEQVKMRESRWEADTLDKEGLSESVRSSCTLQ

[3] = molecular target: T2, Mitogen-activated protein kinase kinase kinase 6 (Homo sapiens, UniProt O95382)
T2 sequence (O95382 whole entry): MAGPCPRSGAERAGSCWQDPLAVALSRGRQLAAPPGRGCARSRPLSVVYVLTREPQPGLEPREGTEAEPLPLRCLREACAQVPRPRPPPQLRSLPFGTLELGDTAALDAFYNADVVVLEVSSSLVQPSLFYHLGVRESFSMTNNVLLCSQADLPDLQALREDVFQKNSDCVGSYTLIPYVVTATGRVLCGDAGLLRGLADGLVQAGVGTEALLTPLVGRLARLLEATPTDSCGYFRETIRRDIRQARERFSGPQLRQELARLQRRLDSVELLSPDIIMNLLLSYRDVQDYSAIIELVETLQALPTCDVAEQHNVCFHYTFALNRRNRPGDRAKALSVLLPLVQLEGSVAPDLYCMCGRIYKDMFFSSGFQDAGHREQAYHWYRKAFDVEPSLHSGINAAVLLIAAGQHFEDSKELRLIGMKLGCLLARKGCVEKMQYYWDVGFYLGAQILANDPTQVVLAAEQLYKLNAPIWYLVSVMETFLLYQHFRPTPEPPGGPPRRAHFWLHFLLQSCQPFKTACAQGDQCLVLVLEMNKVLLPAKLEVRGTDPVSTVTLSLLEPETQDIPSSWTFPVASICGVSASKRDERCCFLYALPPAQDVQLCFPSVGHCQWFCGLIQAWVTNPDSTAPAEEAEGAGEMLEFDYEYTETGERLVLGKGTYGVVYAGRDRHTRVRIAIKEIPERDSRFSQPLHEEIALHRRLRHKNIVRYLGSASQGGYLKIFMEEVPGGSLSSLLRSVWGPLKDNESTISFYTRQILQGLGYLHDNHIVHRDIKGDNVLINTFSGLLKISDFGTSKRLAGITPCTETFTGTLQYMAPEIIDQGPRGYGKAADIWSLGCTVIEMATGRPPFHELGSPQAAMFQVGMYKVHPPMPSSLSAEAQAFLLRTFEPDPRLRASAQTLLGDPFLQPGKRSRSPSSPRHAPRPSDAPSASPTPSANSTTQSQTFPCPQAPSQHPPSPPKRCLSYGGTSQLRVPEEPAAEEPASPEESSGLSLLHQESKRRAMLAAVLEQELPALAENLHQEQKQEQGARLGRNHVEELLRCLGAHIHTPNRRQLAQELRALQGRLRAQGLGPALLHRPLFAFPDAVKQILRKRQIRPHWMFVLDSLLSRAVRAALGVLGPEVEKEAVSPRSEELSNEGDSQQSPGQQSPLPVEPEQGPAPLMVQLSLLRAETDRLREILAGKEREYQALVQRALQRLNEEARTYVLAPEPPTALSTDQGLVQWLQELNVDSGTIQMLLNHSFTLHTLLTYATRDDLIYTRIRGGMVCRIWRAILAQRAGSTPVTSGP

[4] = molecular target: T3, MAP kinase-activated protein kinase 5 (Homo sapiens, UniProt Q8IW41)
T3 sequence (Q8IW41 whole entry): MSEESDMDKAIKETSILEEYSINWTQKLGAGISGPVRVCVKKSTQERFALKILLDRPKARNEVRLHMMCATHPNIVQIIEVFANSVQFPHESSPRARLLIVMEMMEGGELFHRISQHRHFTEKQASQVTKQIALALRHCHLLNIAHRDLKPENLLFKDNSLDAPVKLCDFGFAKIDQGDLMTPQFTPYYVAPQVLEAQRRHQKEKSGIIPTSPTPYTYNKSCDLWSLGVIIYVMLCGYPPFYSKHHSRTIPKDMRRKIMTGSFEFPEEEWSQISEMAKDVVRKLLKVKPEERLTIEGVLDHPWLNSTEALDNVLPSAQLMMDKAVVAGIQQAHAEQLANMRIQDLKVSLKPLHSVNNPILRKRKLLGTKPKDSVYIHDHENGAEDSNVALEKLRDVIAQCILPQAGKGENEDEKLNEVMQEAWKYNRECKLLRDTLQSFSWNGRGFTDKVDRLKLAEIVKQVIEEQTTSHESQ

[5] = molecular target: Serine/threonine-protein kinase 16 (Homo sapiens, UniProt O75716)
[6] = molecular target: Elongation factor Tu, mitochondrial (Homo sapiens, UniProt P49411)
GTP-binding protein 4 = GTP-binding protein 4 (Homo sapiens, UniProt Q9BZE4)
Insulin receptor = Insulin receptor (Homo sapiens, UniProt P06213)
[7] = molecular target: Insulin-like growth factor 1 receptor (Homo sapiens, UniProt P08069)
[8] = molecular target: Casein kinase I isoform delta (Homo sapiens, UniProt P48730)
[9] = molecular target: Tyrosine-protein kinase CSK (Homo sapiens, UniProt P41240)
[10] = molecular target: Protein-tyrosine kinase 2-beta (Homo sapiens, UniProt Q14289)
[11] = molecular target: Mitogen-activated protein kinase 3 (Homo sapiens, UniProt P27361)
Note: in the data inactive means no Kd found up to 30 µM.

Mitogen-activated protein kinase 8, sequence (P45983 whole entry): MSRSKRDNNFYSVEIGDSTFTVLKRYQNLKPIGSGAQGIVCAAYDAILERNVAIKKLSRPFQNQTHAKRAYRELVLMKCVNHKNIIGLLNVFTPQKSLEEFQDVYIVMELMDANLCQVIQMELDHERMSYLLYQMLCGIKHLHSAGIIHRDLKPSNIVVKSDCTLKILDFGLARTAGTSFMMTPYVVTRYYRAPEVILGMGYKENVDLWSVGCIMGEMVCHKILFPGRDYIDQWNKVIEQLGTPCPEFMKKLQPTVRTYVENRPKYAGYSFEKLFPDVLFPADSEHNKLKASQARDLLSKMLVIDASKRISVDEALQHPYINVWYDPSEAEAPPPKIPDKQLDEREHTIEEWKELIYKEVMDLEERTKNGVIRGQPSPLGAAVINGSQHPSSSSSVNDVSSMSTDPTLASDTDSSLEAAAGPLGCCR
Serine/threonine-protein kinase 16, sequence (O75716 whole entry): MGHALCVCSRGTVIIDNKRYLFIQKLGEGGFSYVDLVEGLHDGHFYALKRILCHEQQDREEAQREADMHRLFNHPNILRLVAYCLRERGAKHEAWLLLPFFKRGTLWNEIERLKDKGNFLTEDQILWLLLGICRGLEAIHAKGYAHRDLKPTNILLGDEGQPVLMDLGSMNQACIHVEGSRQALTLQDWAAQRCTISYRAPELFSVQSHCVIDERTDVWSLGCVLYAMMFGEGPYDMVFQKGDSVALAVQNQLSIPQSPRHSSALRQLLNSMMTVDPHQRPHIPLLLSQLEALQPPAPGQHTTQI
Mitogen-activated protein kinase 3, sequence (P27361 whole entry): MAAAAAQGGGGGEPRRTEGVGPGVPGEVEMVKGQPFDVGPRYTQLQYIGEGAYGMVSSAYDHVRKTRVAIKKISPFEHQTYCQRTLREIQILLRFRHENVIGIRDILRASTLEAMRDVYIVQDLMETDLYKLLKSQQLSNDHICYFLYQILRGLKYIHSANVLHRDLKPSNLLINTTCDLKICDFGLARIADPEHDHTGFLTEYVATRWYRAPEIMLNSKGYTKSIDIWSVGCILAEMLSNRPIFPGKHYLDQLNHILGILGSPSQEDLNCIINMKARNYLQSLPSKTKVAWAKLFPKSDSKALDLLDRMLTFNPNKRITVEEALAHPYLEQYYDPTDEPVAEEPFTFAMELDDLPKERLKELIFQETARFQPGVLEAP
Insulin receptor, sequence (P06213 28-758 limits assumed): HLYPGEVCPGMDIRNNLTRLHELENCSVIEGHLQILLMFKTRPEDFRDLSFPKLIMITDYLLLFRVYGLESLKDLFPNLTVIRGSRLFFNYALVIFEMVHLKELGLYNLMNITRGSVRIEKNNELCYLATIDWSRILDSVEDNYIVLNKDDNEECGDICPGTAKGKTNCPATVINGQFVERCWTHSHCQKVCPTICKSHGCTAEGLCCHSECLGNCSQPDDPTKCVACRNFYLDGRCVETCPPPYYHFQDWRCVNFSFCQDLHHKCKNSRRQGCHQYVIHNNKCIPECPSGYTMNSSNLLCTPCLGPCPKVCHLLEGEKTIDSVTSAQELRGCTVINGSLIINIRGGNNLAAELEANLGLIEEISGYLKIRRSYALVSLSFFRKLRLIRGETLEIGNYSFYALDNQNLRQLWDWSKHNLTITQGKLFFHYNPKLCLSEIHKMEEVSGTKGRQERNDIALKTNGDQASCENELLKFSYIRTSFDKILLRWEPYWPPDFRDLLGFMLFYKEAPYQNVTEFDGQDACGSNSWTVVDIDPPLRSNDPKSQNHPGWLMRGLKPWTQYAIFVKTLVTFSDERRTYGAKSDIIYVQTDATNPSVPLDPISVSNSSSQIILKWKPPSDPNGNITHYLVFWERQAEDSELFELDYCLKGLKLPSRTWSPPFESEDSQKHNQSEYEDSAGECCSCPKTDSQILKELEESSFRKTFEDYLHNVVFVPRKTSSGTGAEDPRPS
Insulin receptor, sequence (P06213 763-1382 limits assumed): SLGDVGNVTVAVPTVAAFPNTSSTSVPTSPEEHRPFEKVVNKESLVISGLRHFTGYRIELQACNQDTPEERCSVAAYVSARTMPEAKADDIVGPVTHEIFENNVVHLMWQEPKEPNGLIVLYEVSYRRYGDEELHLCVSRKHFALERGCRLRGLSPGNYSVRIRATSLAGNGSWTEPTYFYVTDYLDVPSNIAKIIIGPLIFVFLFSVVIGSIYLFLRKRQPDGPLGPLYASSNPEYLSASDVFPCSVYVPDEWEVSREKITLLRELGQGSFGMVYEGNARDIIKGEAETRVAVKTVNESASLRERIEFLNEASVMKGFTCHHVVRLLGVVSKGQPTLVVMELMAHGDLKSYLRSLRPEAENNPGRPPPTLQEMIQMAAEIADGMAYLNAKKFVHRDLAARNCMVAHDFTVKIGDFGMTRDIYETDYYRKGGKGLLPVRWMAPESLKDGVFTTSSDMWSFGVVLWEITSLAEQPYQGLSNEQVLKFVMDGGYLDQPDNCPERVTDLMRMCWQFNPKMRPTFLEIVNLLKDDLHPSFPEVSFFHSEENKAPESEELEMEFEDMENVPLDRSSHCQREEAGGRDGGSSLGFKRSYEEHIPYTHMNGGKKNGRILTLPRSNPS
Protein-tyrosine kinase 2-beta, sequence (Q14289 whole entry): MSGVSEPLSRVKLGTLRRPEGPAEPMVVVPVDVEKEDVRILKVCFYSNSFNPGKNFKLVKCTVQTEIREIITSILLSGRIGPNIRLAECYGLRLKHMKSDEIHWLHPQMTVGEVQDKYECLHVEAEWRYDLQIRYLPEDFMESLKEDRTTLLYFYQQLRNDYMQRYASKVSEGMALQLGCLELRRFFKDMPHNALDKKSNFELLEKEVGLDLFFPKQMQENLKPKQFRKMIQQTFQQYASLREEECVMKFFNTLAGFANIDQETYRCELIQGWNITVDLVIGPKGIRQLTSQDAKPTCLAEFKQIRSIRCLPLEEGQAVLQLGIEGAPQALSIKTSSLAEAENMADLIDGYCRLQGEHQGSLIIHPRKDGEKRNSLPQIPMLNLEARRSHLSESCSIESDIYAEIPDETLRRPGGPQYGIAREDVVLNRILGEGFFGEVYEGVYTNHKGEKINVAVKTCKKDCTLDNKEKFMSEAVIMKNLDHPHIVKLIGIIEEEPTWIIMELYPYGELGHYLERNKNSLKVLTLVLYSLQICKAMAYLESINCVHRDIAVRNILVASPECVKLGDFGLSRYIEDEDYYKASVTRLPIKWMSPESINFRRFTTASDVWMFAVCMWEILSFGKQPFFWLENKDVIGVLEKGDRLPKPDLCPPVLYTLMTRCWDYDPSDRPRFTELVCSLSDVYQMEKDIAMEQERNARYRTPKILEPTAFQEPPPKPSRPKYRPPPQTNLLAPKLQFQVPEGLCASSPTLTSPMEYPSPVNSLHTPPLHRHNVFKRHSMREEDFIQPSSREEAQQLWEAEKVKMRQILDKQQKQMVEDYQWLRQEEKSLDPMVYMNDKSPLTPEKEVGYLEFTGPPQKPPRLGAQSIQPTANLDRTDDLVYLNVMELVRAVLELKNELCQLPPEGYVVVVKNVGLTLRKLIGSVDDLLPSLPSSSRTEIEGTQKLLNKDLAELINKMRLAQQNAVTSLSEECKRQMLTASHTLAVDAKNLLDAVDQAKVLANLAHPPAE
Casein kinase I isoform delta, sequence (P48730 whole entry, canonical isoform): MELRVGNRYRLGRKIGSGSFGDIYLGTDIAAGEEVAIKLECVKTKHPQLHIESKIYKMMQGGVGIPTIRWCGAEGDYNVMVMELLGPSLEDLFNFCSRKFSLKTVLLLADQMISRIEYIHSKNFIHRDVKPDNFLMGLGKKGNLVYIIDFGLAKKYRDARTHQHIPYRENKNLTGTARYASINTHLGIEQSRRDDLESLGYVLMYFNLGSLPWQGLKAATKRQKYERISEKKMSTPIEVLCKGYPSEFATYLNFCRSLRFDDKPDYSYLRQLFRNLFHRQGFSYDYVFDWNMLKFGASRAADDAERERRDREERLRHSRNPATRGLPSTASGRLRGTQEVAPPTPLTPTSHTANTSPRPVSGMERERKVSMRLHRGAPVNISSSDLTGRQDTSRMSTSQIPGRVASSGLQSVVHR

Row | SMILES | Kd [1] | Kd [2] | Kd [3] | Kd [4] | Kd [5] | Kd [6] | Kd (GTP-binding protein 4) | Kd (Insulin receptor) | Kd [7] | Kd [8] | Kd [9] | Kd [10] | Kd [11]
1 | O=c1[nH]c([C@@H]2CCCN2)nc2c1oc1ccc(Cl)cc12 | > 30 µM (inactive) | > 30 µM (inactive) | > 30 µM (inactive) | > 30 µM (inactive) | > 30 µM (inactive) | > 30 µM (inactive) | > 30 µM (inactive) | > 30 µM (inactive) | > 30 µM (inactive) | > 30 µM (inactive) | > 30 µM (inactive) | > 30 µM (inactive) | > 30 µM (inactive)
2 | Cn1cc(-c2[nH]c3cc(NC(=O)[C@H](N)C4CCCCC4)cc4c3c2C=NNC4=O)cn1 | > 30 µM (inactive) | 1.17 µM (active) | > 30 µM (inactive) | > 30 µM (inactive) | > 30 µM (inactive) | > 30 µM (inactive) | > 30 µM (inactive) | > 30 µM (inactive) | > 30 µM (inactive) | > 30 µM (inactive) | > 30 µM (inactive) | > 30 µM (inactive) | 3.21 µM (active)
3 | CCN1CCN(Cc2ccc(Nc3ncc(F)c(-c4cc(F)c5nc(C)n(C(C)C)c5c4)n3)nc2)CC1 [ABEMACICLIB] | 3.76 µM (active) | > 30 µM (inactive) | > 30 µM (inactive) | > 30 µM (inactive) | 0.495 µM (active) | > 30 µM (inactive) | > 30 µM (inactive) | > 30 µM (inactive) | > 30 µM (inactive) | > 30 µM (inactive) | > 30 µM (inactive) | > 30 µM (inactive) | > 30 µM (inactive)
4 | Cc1c(NC(=O)OC[C@@H]2COCCN2)cn2ncnc(Nc3ccc4c(cnn4Cc4cccc(F)c4)c3)c12 [AC-480] | > 30 µM (inactive) | > 30 µM (inactive) | > 30 µM (inactive) | > 30 µM (inactive) | > 30 µM (inactive) | > 30 µM (inactive) | > 30 µM (inactive) | > 30 µM (inactive) | > 30 µM (inactive) | > 30 µM (inactive) | > 30 µM (inactive) | > 30 µM (inactive) | > 30 µM (inactive)
5 | NC[C@@](O)(c1ccc(Cl)cc1)c1ccc(-c2cn[nH]c2)cc1 [AT-13148] | > 30 µM (inactive) | > 30 µM (inactive) | > 30 µM (inactive) | > 30 µM (inactive) | > 30 µM (inactive) | > 30 µM (inactive) | > 30 µM (inactive) | > 30 µM (inactive) | > 30 µM (inactive) | > 30 µM (inactive) | > 30 µM (inactive) | > 30 µM (inactive) | > 30 µM (inactive)
6 | CNC(=O)c1ccc(Nc2ncc(C(F)(F)F)c(NCc3nccnc3N(C)S(C)(=O)=O)n2)cc1 [DEFACTINIB] | > 30 µM (inactive) | > 30 µM (inactive) | > 30 µM (inactive) | > 30 µM (inactive) |  | > 30 µM (inactive) | > 30 µM (inactive) | > 30 µM (inactive) | > 30 µM (inactive) | > 30 µM (inactive) | > 30 µM (inactive) | 0.423 µM (active) | > 30 µM (inactive)

The next lines start with the values.

Row | Kd [1] | Kd [2] | Kd [3] | Kd [4] | Kd [5] | Kd [6] | Kd (GTP-binding protein 4) | Kd (Insulin receptor) | Kd [7] | Kd [8] | Kd [9] | Kd [10] | Kd [11] | SMILES
7 | > 30 µM (inactive) | > 30 µM (inactive) | > 30 µM (inactive) | > 30 µM (inactive) | > 30 µM (inactive) | > 30 µM (inactive) | > 30 µM (inactive) | > 30 µM (inactive) | > 30 µM (inactive) | > 30 µM (inactive) | > 30 µM (inactive) | > 30 µM (inactive) | > 30 µM (inactive) | CCc1cc2c(cc1N1CCC(N3CCOCC3)CC1)C(C)(C)c1[nH]c3cc(C#N)ccc3c1C2=O [ALECTINIB]
8 | > 30 µM (inactive) | > 30 µM (inactive) | > 30 µM (inactive) | > 30 µM (inactive) | > 30 µM (inactive) | > 30 µM (inactive) | > 30 µM (inactive) | > 30 µM (inactive) | > 30 µM (inactive) | > 30 µM (inactive) | > 30 µM (inactive) | > 30 µM (inactive) | > 30 µM (inactive) | COc1ccc2c(OCc3nnc4ccc(-c5ccccc5)nn34)ccnc2c1 [AMG-208]
9 | > 30 µM (inactive) | > 30 µM (inactive) | > 30 µM (inactive) | > 30 µM (inactive) | > 30 µM (inactive) | > 30 µM (inactive) | > 30 µM (inactive) | > 30 µM (inactive) | > 30 µM (inactive) | > 30 µM (inactive) | > 30 µM (inactive) | > 30 µM (inactive) | > 30 µM (inactive) | S=C(NCc1ccc2c(c1)OCO2)N1CCN(c2ncnc3c2oc2ccccc23)CC1 [AMUVATINIB]
10 | 2.01 µM (active) | > 30 µM (inactive) | > 30 µM (inactive) | > 30 µM (inactive) |  | > 30 µM (inactive) | > 30 µM (inactive) | > 30 µM (inactive) | > 30 µM (inactive) | > 30 µM (inactive) | > 30 µM (inactive) | > 30 µM (inactive) | > 30 µM (inactive) | COc1cc(Nc2ncc(F)c(Nc3ccc4c(n3)N(COP(=O)(O)O)C(=O)C(C)(C)O4)n2)cc(OC)c1OC [FOSTAMATINIB]
11 | > 30 µM (inactive) | > 30 µM (inactive) | > 30 µM (inactive) | > 30 µM (inactive) | > 30 µM (inactive) | > 30 µM (inactive) |  | > 30 µM (inactive) | > 30 µM (inactive) | > 30 µM (inactive) | > 30 µM (inactive) | > 30 µM (inactive) | > 30 µM (inactive) | O=C(O)c1ccc2c(c1)nc(Nc1cccc(Cl)c1)c1ccncc12 [SILMITASERTIB]
12 | > 30 µM (inactive) | > 30 µM (inactive) | > 30 µM (inactive) | > 30 µM (inactive) |  | > 30 µM (inactive) | > 30 µM (inactive) | > 30 µM (inactive) | > 30 µM (inactive) | > 30 µM (inactive) | > 30 µM (inactive) | > 30 µM (inactive) | > 30 µM (inactive) | CC(C)(O)CC(=O)NCCn1ccc2ncnc(Nc3ccc(Oc4cccc(C(F)(F)F)c4)c(Cl)c3)c21 [TAK-285]
